Consider 1 substance from US9718738B2 (priority 2014, dated 2017).

In one experiment the test system is grain corn. Conditions: in vivo.
In experiment [1] the test system is long white bunching onions. Conditions: in vivo.

urea: the grain yield in the experiment with grain corn turned out to be 180.5 bu/acre. Also, the “plant height after 6 weeks” value in experiment [1] is listed as “performing poorer than no nitrogen fertilizer at all”.
